For six compounds, Activity results are on record in ChEMBL document CHEMBL4819054, “Rotenoids and Other Specialized Metabolites from the Roots of Mirabilis multiflora: Opioid and Cannabinoid Receptor Radioligand Binding Affinities” (J Nat Prod, 2021).

Holding throughout (conditions): Membrane
Test [1] has as its target Mu-type opioid receptor (Homo sapiens) (UniProt P35372). The test can be described thus: Displacement of [3H]-DAMGO from human mu opioid receptor expressed in CHO-K1 cell membranes at 10 uM incubated for 60 mins by TopCount scintillation counting method relative to control. (In general: Displacement assays read how much labelled ligand stays bound in the presence of the test substance.)

Test [2] has as its target Delta-type opioid receptor (Homo sapiens) (UniProt P41143). Put plainly: Displacement of [3H]-DPDPE from human delta opioid receptor expressed in CHO-K1 cell membranes at 10 uM incubated for 60 mins by TopCount scintillation counting method relative to control.
For test [3], the target named is Cannabinoid receptor 2 (Homo sapiens) (UniProt P34972). Put plainly: Displacement of [3H]-CP-55,940 from full-length recombinant human CB2R expressed in CHO-K1 cell membranes at 10 uM incubated for 90 mins by TopCount scintillation counting method relative to control.
The target of test [4] is Cannabinoid receptor 1 (Homo sapiens) (UniProt P21554). Put plainly: Displacement of [3H]-CP-55,940 from full-length recombinant human CB1R expressed in CHO-K1 cell membranes at 10 uM incubated for 90 mins by TopCount scintillation counting method relative to control.
In test [5] the target is Kappa-type opioid receptor (Homo sapiens) (UniProt P41145). The test can be described thus: Displacement of [3H]-U69593 from human kappa opioid receptor expressed in CHO-K1 cell membranes at 10 uM incubated for 60 mins by TopCount scintillation counting method relative to control.

The structures appear in SMILES notation. The source made the active and inactive calls. The rule behind the calls is not given here.

Chain of Mu-type opioid receptor (Homo sapiens) (P35372 whole entry): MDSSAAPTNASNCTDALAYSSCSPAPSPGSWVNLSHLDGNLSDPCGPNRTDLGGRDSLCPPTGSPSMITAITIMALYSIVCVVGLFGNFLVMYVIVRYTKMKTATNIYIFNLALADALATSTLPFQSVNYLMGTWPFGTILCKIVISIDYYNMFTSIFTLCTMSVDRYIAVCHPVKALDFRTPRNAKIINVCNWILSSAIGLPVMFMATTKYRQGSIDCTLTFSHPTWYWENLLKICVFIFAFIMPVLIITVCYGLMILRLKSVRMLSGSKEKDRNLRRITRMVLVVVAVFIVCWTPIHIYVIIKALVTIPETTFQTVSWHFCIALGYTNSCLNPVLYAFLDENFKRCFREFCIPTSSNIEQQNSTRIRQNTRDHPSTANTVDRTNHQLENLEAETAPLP
Chain of Kappa-type opioid receptor (Homo sapiens) (P41145 whole entry): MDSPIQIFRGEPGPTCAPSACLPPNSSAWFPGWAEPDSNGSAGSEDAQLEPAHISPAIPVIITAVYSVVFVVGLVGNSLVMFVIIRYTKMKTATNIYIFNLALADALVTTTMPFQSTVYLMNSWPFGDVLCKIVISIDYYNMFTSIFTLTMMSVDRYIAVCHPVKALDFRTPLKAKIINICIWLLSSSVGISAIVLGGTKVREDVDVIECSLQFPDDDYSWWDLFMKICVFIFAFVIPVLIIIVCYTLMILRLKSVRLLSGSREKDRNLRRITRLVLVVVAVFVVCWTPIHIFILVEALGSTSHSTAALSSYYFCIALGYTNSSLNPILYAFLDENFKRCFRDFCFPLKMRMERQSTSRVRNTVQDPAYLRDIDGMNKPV
Chain of Cannabinoid receptor 1 (Homo sapiens) (P21554 whole entry): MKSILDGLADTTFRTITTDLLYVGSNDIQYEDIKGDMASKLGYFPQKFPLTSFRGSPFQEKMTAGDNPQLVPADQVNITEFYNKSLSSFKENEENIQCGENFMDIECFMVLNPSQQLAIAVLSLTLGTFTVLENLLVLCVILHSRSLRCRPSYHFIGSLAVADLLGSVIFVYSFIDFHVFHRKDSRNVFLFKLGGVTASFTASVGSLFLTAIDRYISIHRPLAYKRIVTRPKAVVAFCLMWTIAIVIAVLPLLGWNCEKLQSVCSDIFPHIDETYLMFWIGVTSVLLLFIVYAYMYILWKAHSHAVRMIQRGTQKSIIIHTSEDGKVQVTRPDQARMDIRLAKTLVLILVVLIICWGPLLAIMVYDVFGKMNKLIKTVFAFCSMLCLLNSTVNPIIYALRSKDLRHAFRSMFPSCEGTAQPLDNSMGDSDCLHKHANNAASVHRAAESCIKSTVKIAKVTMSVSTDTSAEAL
Chain of Delta-type opioid receptor (Homo sapiens) (P41143 whole entry): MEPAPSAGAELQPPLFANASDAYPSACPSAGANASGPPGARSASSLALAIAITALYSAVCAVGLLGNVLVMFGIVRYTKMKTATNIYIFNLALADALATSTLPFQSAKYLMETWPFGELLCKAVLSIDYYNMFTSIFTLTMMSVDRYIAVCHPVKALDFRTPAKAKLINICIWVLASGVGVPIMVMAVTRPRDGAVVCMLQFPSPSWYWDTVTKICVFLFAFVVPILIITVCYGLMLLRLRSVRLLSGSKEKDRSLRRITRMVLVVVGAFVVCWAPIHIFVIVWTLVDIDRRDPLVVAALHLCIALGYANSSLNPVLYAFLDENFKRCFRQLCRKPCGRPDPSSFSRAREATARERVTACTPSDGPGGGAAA
Chain of Cannabinoid receptor 2 (Homo sapiens) (P34972 whole entry): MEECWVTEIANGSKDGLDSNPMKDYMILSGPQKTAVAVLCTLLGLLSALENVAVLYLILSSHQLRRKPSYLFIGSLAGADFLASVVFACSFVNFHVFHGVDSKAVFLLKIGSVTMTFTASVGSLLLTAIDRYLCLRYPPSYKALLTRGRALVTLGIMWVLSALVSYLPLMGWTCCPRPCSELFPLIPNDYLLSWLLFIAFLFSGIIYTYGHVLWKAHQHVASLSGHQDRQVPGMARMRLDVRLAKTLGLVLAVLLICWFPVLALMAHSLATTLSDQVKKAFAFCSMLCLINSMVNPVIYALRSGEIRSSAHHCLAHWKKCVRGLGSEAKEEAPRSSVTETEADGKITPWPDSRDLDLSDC

In the case of `COc1cc2c(c(O)c1C)C(=O)[C@@]1(O)c3cccc(O)c3O[C@@H](OC)[C@@H]1O2`, the Activity is 39.6% in test [1]; 20.1% in test [2]; 7.4% in test [3]; 42.2% in test [4]; 28.9% in test [5].
Taken in the same sequence, the figures for `CO[C@@H]1Oc2ccccc2-c2c1oc1cc(O)c(C)c(O)c1c2=O` were 64.5%, 24.5%, “inactive”, “inactive” and 48.8%.
For `COc1c(C)c(O)c2c(c1C)O[C@H]1[C@H](OC)Oc3c(O)cccc3[C@]1(O)C2=O`, in that order: 55.3%, 31.6%, “inactive”, 17% and 41.8%.
On to `COc1cc2c(c(O)c1C)C(=O)[C@@]1(O)c3cccc(OC)c3O[C@@H](OC)[C@@H]1O2`, for which the Activity in test [1] worked out at 58.6%; in test [2], 12.3%; in test [3], 5.4%; in test [5], 30.5%. For the same compound, the result in test [4] was inactive.
Consider `COc1c(C)c(O)c2c(c1C)O[C@H]1COc3c(O)cccc3[C@]1(O)C2=O`, for which the Activity in test [1] was determined as 45.9%; in test [2] it was 15.2%; in test [5], 38.9%. Moreover, the result in test [3] and in test [4] was inactive.
Turning to `COc1cc2c(c(O)c1C)C(=O)[C@@]1(O)c3cccc(O)c3OC[C@@H]1O2`, the Activity turned out to be 50.9% in test [1], 26.3% in test [2] and 21.8% in test [5]. The result in test [3] and in test [4] was inactive.
